# Patent publication US20180303809A1, “TREATMENT OF BURN PAIN BY TRPV1 MODULATORS” (Purdue Pharma L.P., priority 2013, published 2018)
# How the values were obtained:
# Type in all cases: in vivo, rat
# male Sprague-Dawley rats [1] = assay: Hind limb weight bearing (incapacitance meter, % WL) in thermal burn pain model; details: for % WL (mean ± S.E.M.), percentage of weight borne on the burn-injured left hind paw: rat burn injury 55° C. 24 s
# Protocol: (§1) Test Animals: Each experiment used male Sprague-Dawley rats weighing between 190-260 g at the time of thermal burn injury. The rats were housed two per cage, and were allowed to acclimate to their environment for at least six days before testing began. The rats had free access to food and water at all times, except during testing and prior to oral (PO) administration of a test compound, when food was removed about 16 hours before dosing. The rats were divided into treatment groups, and one of the following compounds was administered to each group at the dose and by the route of administration indicated in Tables 5.2A to 5.2C, 5.3A and 5.3B, and 5.4A and 5.4B: ketorolac (Sigma-Aldrich, St. Louis, Mo.), AMG 517 (selective TRPV1 antagonist described in Em. Doherty et al., “Novel vanilloid receptor-1 antagonists:2. Structure-activity relationships of 4-oxopyrimidines leading to the selection of a clinical candidate,” J Med Chem 50:3515-3527 (2007).) (Purdue Pharma L. P., Cranbury, N.J.), indomethacin (Alexis Biochemicals, Farmingdale, N.Y.), gabapentin (Bosche Scientific, New Brunswick, N.J.), or (S)-3-chloro-5-(1,2-dihydroxyethyl)-N-(5-(trifluoromethyl)pyridin-2-yl)-5′,6′-dihydro-[2,4′-bipyridine]-1′(2′H)-carboxamide (Compound 1). The control groups were administered the vehicle for the compound of formula (I). The volume of administration for PO treatment was 5 ml/kg, and was the same for all treatment groups. Volume of administration for intraperitoneal (i.p.) drug administration was 2 ml/kg.
# (§2) To assess the actions of a compound of formula (I) for the treatment or prevention of burn pain, a model of thermal burn pain was used. A thermal burn injury was induced under isofluorane/O2 inhalation anesthesia. To assess mechanical hyperalgesia and weight bearing, a thermal injury was produced by immersing the left hind paw into water maintained at 55° C. for 24 seconds. The left hind paw of non-injured control animals was immersed in 22° C. water for 24 seconds. To assess thermal hyperalgesia, a thermal injury was produced by immersing the left hindpaw into water maintained at 50° C. for 48 seconds; the left hind-paw of non-injured control animals was immersed in 22° C. water for 48 seconds. The animals were assessed for response to noxious mechanical stimuli by determining PWT for mechanical hyperalgesia, weight bearing difference between the injured or non-injured side, or response to noxious thermal stimuli by determining PWL for thermal hyperalgesia, all as described below, prior to drug administration (baseline), then again at 1, 3 and 5 hours after induction of burn injury.
# A commercially available incapacitance meter was used to determine the weight distribution on the two hind paws of the animal (Linton Incapacitance Tester (Linton Instrumentation, Norfolk, UK)). The weight bearing difference (WBD) between the injured and non-injured hindpaw was measured. The animal was placed in the testing chamber that allows the animal to stand normally, distributing its body weight on the hind limbs for the test. Each hind paw was positioned on a separate pressure sensitive pad, which independently measures the pressure applied by each limb. The device continuously collects data after either a force threshold has been exceeded, or the investigator depresses the start pad. Rats were allowed to acclimate when placed on the apparatus, and when they were stationary, the force exerted was then continuously monitored for 3 s. The endpoint was the amount of pressure applied to each limb over time. Three readings were taken for each rat at each time point, and the average used for data analysis. WBD was expressed as “% WL”, i.e. the percentage of weight borne on the burn-injured left hind paw, using the following formula: […]
# where WLP is the weight on the left hind paw and WRP is the weight on the right (untreated) hind paw. The 50% value of % WL corresponds to an equal weight distribution across both hind paws. […]
# male Sprague-Dawley rats [2] = assay: Plantar test, thermal hyperalgesia (PWL) in thermal burn pain model; details: for % Change from Baseline (mean ± S.E.M.) of Paw Withdrawal Latency / Paw Withdrawal Latency (sec) (mean ± S.E.M.): rat burn injury 50° C. 48 s
# Protocol: as §1, §2
# The plantar test was used to assess thermal hyperalgesia. For this test, hind paw withdrawal latencies (PWL) to a noxious thermal stimulus were determined using a plantar test apparatus (commercially available from Ugo Basile of Italy) following the technique described by K. Hargreaves et al., “A New and Sensitive Method for Measuring Thermal Nociception in Cutaneous Hyperalgesia,” Pain 32(1):77-88 (1988). The maximum exposure time was set at 32 seconds to avoid tissue damage and any directed paw withdrawal from the heat source is taken as the end point. Three latencies were determined at each time point and averaged.
# male Sprague-Dawley rats [3] = assay: Paw pressure assay, mechanical hyperalgesia (PWT) in thermal burn pain model; details: for % Decrease from Baseline (mean ± S.E.M.) of Paw Withdrawal Threshold / Paw Withdrawal Threshold (g) (mean ± S.E.M.): rat burn injury 55° C. 24 s
# Protocol: as §1, §2
# The paw pressure assay was used to assess mechanical hyperalgesia. For this assay, hind paw withdrawal thresholds (PWT) to a noxious mechanical stimulus were determined using an analgesimeter (Model 7200, commercially available from Ugo Basile of Italy) as described in C. Stein, “Unilateral Inflammation of the Hindpaw in Rats as a Model of Prolonged Noxious Stimulation: Alterations in Behavior and Nociceptive Thresholds,” Pharmacol. Biochem. and Behavior 31:451-455 (1988). The rat's paw was placed on a small platform, and weight was applied in a graded manner up to a maximum of 250 grams. The endpoint was taken as the weight at which the paw was completely withdrawn. PWT was determined once for each rat at each time point, wherein the affected (ipsilateral; same side as the injury) rear paw was tested. […] All drug treatment groups were compared to the vehicle control group (i.e. injured, administered only the vehicle).
# [4] = 3 mg/kg PO, 1 h after administration
# [5] = 3 mg/kg PO, 3 h after administration
# [6] = 3 mg/kg PO, 5 h after administration
# [7] = 3 mg/kg PO, baseline (prior to drug administration)
# [8] = 10 mg/kg PO, 1 h after administration
# [9] = 10 mg/kg PO, 3 h after administration
# [10] = 10 mg/kg PO, 5 h after administration
# [11] = 10 mg/kg PO, baseline (prior to drug administration)
# [12] = 30 mg/kg PO, 1 h after administration
# [13] = 30 mg/kg PO, 3 h after administration
# [14] = 30 mg/kg PO, 5 h after administration
# [15] = 30 mg/kg PO, baseline (prior to drug administration)
smiles,measurement,setting,value
"O=C(Nc1ccc(C(F)(F)F)cn1)N1CC=C(c2ncc([C@H](O)CO)cc2Cl)CC1 [Compound 1, (S)-3-chloro-5-(1,2-dihydroxyethyl)-N-(5-(trifluoromethyl)pyridin-2-yl)-5′,6′-dihydro-[2,4′-bipyridine]-1′(2′H)-carboxamide]",Effect on weight bearing,male Sprague-Dawley rats [1]; rat burn injury,did not significantly affect weight bearing
same,"% WL (mean ± S.E.M.), percentage of weight borne on the burn-injured left hind paw",male Sprague-Dawley rats [1]; [4],24.4 ± 4.44%
same,"% WL (mean ± S.E.M.), percentage of weight borne on the burn-injured left hind paw",male Sprague-Dawley rats [1]; [5],42.0 ± 4.51%
same,"% WL (mean ± S.E.M.), percentage of weight borne on the burn-injured left hind paw",male Sprague-Dawley rats [1]; [6],49.5 ± 3.60%
same,"% WL (mean ± S.E.M.), percentage of weight borne on the burn-injured left hind paw",male Sprague-Dawley rats [1]; [7],50.6 ± 0.62%
same,"% WL (mean ± S.E.M.), percentage of weight borne on the burn-injured left hind paw",male Sprague-Dawley rats [1]; [8],37.6 ± 2.54%
same,"% WL (mean ± S.E.M.), percentage of weight borne on the burn-injured left hind paw",male Sprague-Dawley rats [1]; [9],47.3 ± 1.92%
same,"% WL (mean ± S.E.M.), percentage of weight borne on the burn-injured left hind paw",male Sprague-Dawley rats [1]; [10],49.0 ± 2.15%
same,"% WL (mean ± S.E.M.), percentage of weight borne on the burn-injured left hind paw",male Sprague-Dawley rats [1]; [11],50.6 ± 0.71%
same,"% WL (mean ± S.E.M.), percentage of weight borne on the burn-injured left hind paw",male Sprague-Dawley rats [1]; [12],31.4 ± 3.92%
same,"% WL (mean ± S.E.M.), percentage of weight borne on the burn-injured left hind paw",male Sprague-Dawley rats [1]; [13],50.3 ± 2.07%
same,"% WL (mean ± S.E.M.), percentage of weight borne on the burn-injured left hind paw",male Sprague-Dawley rats [1]; [14],55.6 ± 3.03%
same,"% WL (mean ± S.E.M.), percentage of weight borne on the burn-injured left hind paw",male Sprague-Dawley rats [1]; [15],50.3 ± 0.53%
same,Effect on thermal hyperalgesia,male Sprague-Dawley rats [2]; rat burn injury,did not significantly affect thermal hyperalgesia
same,% Change from Baseline (mean ± S.E.M.) of Paw Withdrawal Latency,male Sprague-Dawley rats [2]; [4],−45.8 ± 14.53%
same,Paw Withdrawal Latency (sec) (mean ± S.E.M.),male Sprague-Dawley rats [2]; [4],8.1 ± 0.77 s
same,% Change from Baseline (mean ± S.E.M.) of Paw Withdrawal Latency,male Sprague-Dawley rats [2]; [5],−34.4 ± 7.57%
same,Paw Withdrawal Latency (sec) (mean ± S.E.M.),male Sprague-Dawley rats [2]; [5],9.2 ± 0.99 s
same,% Change from Baseline (mean ± S.E.M.) of Paw Withdrawal Latency,male Sprague-Dawley rats [2]; [6],−35.7 ± 15.81%
same,Paw Withdrawal Latency (sec) (mean ± S.E.M.),male Sprague-Dawley rats [2]; [6],9.9 ± 0.70 s
same,Paw Withdrawal Latency (sec) (mean ± S.E.M.),male Sprague-Dawley rats [2]; [7],14.5 ± 1.22 s
same,% Change from Baseline (mean ± S.E.M.) of Paw Withdrawal Latency,male Sprague-Dawley rats [2]; [8],−36.0 ± 11.15%
same,Paw Withdrawal Latency (sec) (mean ± S.E.M.),male Sprague-Dawley rats [2]; [8],8.9 ± 1.08 s
same,% Change from Baseline (mean ± S.E.M.) of Paw Withdrawal Latency,male Sprague-Dawley rats [2]; [9],−19.7 ± 10.24%
same,Paw Withdrawal Latency (sec) (mean ± S.E.M.),male Sprague-Dawley rats [2]; [9],12.0 ± 0.66 s
same,% Change from Baseline (mean ± S.E.M.) of Paw Withdrawal Latency,male Sprague-Dawley rats [2]; [10],−22.5 ± 9.23%
same,Paw Withdrawal Latency (sec) (mean ± S.E.M.),male Sprague-Dawley rats [2]; [10],11.3 ± 0.98 s
same,Paw Withdrawal Latency (sec) (mean ± S.E.M.),male Sprague-Dawley rats [2]; [11],14.4 ± 1.17 s
same,% Change from Baseline (mean ± S.E.M.) of Paw Withdrawal Latency,male Sprague-Dawley rats [2]; [12],−34.3 ± 6.08%
same,Paw Withdrawal Latency (sec) (mean ± S.E.M.),male Sprague-Dawley rats [2]; [12],7.8 ± 0.73 s
same,% Change from Baseline (mean ± S.E.M.) of Paw Withdrawal Latency,male Sprague-Dawley rats [2]; [13],−15.7 ± 10.29%
same,Paw Withdrawal Latency (sec) (mean ± S.E.M.),male Sprague-Dawley rats [2]; [13],11.5 ± 1.04 s
same,% Change from Baseline (mean ± S.E.M.) of Paw Withdrawal Latency,male Sprague-Dawley rats [2]; [14],−16.6 ± 8.94%
same,Paw Withdrawal Latency (sec) (mean ± S.E.M.),male Sprague-Dawley rats [2]; [14],11.2 ± 0.81 s
same,Paw Withdrawal Latency (sec) (mean ± S.E.M.),male Sprague-Dawley rats [2]; [15],13.7 ± 0.92 s
same,% Decrease from Baseline (mean ± S.E.M.) of Paw Withdrawal Threshold,male Sprague-Dawley rats [3]; [4],59 ± 1.8%
same,Paw Withdrawal Threshold (g) (mean ± S.E.M.),male Sprague-Dawley rats [3]; [4],97 ± 4.5 g
same,% Decrease from Baseline (mean ± S.E.M.) of Paw Withdrawal Threshold,male Sprague-Dawley rats [3]; [5],63.2 ± 2.1^ %
same,Paw Withdrawal Threshold (g) (mean ± S.E.M.),male Sprague-Dawley rats [3]; [5],88 ± 5.6 g
same,% Decrease from Baseline (mean ± S.E.M.) of Paw Withdrawal Threshold,male Sprague-Dawley rats [3]; [6],63 ± 1.4%
same,Paw Withdrawal Threshold (g) (mean ± S.E.M.),male Sprague-Dawley rats [3]; [6],90 ± 4.0 g
same,Paw Withdrawal Threshold (g) (mean ± S.E.M.),male Sprague-Dawley rats [3]; [7],240 ± 8.4 g
same,% Decrease from Baseline (mean ± S.E.M.) of Paw Withdrawal Threshold,male Sprague-Dawley rats [3]; [8],55 ± 3.2%
same,Paw Withdrawal Threshold (g) (mean ± S.E.M.),male Sprague-Dawley rats [3]; [8],108 ± 73^ g
same,% Decrease from Baseline (mean ± S.E.M.) of Paw Withdrawal Threshold,male Sprague-Dawley rats [3]; [9],60 ± 3.2%
same,Paw Withdrawal Threshold (g) (mean ± S.E.M.),male Sprague-Dawley rats [3]; [9],97 ± 8.5 g
same,% Decrease from Baseline (mean ± S.E.M.) of Paw Withdrawal Threshold,male Sprague-Dawley rats [3]; [10],66 ± 2.4%
same,Paw Withdrawal Threshold (g) (mean ± S.E.M.),male Sprague-Dawley rats [3]; [10],83 ± 5.4 g
same,Paw Withdrawal Threshold (g) (mean ± S.E.M.),male Sprague-Dawley rats [3]; [11],243 ± 6.5 g
same,% Decrease from Baseline (mean ± S.E.M.) of Paw Withdrawal Threshold,male Sprague-Dawley rats [3]; [12],37 ± 2.5 %
same,Paw Withdrawal Threshold (g) (mean ± S.E.M.),male Sprague-Dawley rats [3]; [12],153 ± 4.4 g
same,% Decrease from Baseline (mean ± S.E.M.) of Paw Withdrawal Threshold,male Sprague-Dawley rats [3]; [13],42 ± 4.5 %
same,Paw Withdrawal Threshold (g) (mean ± S.E.M.),male Sprague-Dawley rats [3]; [13],141 ± 9.0 g
same,% Decrease from Baseline (mean ± S.E.M.) of Paw Withdrawal Threshold,male Sprague-Dawley rats [3]; [14],61 ± 2.0^ %
same,Paw Withdrawal Threshold (g) (mean ± S.E.M.),male Sprague-Dawley rats [3]; [14],95 ± 4.5 g
same,Paw Withdrawal Threshold (g) (mean ± S.E.M.),male Sprague-Dawley rats [3]; [15],244 ± 6.0^ g
same,Effect on mechanical hyperalgesia associated with the burn injury,"male Sprague-Dawley rats [3]; rat, 30 mg/kg",significantly reduced mechanical hyperalgesia
